Earlier results, collected in patent US11260023B2, “Topical compositions containing rofecoxib and methods of making and using the same” (BRIORI BIOTECH, LLC, priority 2020, dated 2022).

What was measured:
[1] = of the solvent; cited from earlier work
[2] = after 24 hours after 25 hours; cited from earlier work

| SMILES | logP [1] | Δd (dispersion) [1] [MPa^1/2] | Δh (hydrogen bonding) [1] [MPa^1/2] | Δp (polar) [1] [MPa^1/2] | amount of diclofenac that penetrates into the blood [2] [mg] |
| --- | --- | --- | --- | --- | --- |
| CC(C)OC(=O)CCCCC(=O)OC(C)C [Diisopropyl Adipate, diisopropyl adipate] | 2.2 |  |  |  |  |
| CC1COC(=O)O1 (centres unmarked) [Propylene Carbonate, propylene carbonate] | −0.4 | 20 | 4.1 | 18 |  |
| CCCCCCCCCCCCCC(=O)OC(C)C [Isopropyl tetradecanoate, isopropyl tetradecanoate] |  | 16.2 | 3.7 | 2.4 |  |
| OCc1ccccc1 [Benzyl Alcohol, benzyl alcohol] |  | 18.4 | 13.7 | 6.3 |  |
| CCOC(=O)CCCCCCCCC(=O)OCC [Diethyl Sebacate, diethyl sebacate] | 3.5 | 16 | 4.7 | 4 |  |
| C[S+](C)[O-] [Dimethyl Sulfoxide, dimethyl sulfoxide] | −0.6 | 18.4 | 10.2 | 16.4 |  |
| CC(O)CO (centres unmarked) [Propylene Glycol, MP, propylene glycol] | −0.9 | 16.8 | 23.3 | 9.4 |  |
| CCOCCOCCO [Diethylene Glycol Monoethyl Ether, diethylene glycol monoethyl ether] | −0.5 | 16.2 | 14.3 | 9.2 |  |
| CC1=CCC(C(C)(C)O)CC1 (stereo not drawn) [alpha-Terpineol 95.0+ %, alpha-terpineol] | 1.8 | 17.1 | 7.6 | 3.6 |  |
| CC(O)CC(C)(C)O (centres unmarked) [2-Methyl-pentane-2,4-diol, 2-methylpentane-2,4-diol] | 0.3 | 16.4 | 20.6 | 8 |  |
| CC(C)=O [Acetone, acetone] | −0.1 | 15.5 | 7 | 10.4 |  |
| CCOC(C)=O [Ethyl Acetate, ethyl acetate] | 0.76 | 15.8 | 7.2 | 5.3 |  |
| O=C(O)Cc1ccccc1Nc1c(Cl)cccc1Cl [diclofenac] |  |  |  |  | 0.067 |
| CO[C@H]1CO[C@H]2[C@@H]1OC[C@H]2OC [Dimethyl Isosorbide, isosorbide dimethyl ether] | −0.6 | 17.6 | 7.5 | 7.1 |  |
| CC(=O)OCC(C)OC(C)=O (centres unmarked) [Propylene Glycol Diacetate, propylene glycol diacetate] | 0.7 |  |  |  |  |
| CN1CCCC1=O [N-Methyl-2-Pyrrolidone, N-methyl-2-pyrrolidone] | 0.5 | 18 | 7.2 | 12.3 |  |
